Measurements published in ChEMBL document CHEMBL1201862, “PubChem BioAssay data set” (2004).
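Tested at 5 concentrations; 48 h exposure; 96-well plates; endpoints linearly interpolated, else capped at highest concentration. Abbreviation: GI50, concentration required for 50% inhibition of growth.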 Active and inactive are the calls of the source. Cut-off read from the data, not from the text of the source: active = GI50 up to about 1.1 µM and inactive = higher.

Columns and labels:
Experiment in all cases: inhibition of tumour cell growth, NCI panel, 48 h
EKVX = system: EKVX
SNB-75 = system: SNB-75
LOX IMVI = system: LOX IMVI
SK-MEL-2 = system: SK-MEL-2
HT-29 = system: HT-29
SF-295 = system: SF-295
HL-60 = system: HL-60
NCI-H23 = system: NCI-H23
IGROV-1 = system: IGROV-1
COLO 205 = system: COLO 205
K562 = system: K562
ACHN = system: ACHN
NCI-H460 = system: NCI-H460
HOP-62 = system: HOP-62
HOP-92 = system: HOP-92
OVCAR-4 = system: OVCAR-4
Hs-578T = system: Hs-578T
NCI/ADR-RES = system: NCI/ADR-RES

| SMILES | GI50 (EKVX) | GI50 (SNB-75) | GI50 (LOX IMVI) | GI50 (SK-MEL-2) | GI50 (HT-29) | GI50 (SF-295) | GI50 (HL-60) | GI50 (NCI-H23) | GI50 (IGROV-1) | GI50 (COLO 205) | GI50 (K562) | GI50 (ACHN) | GI50 (NCI-H460) | GI50 (HOP-62) | GI50 (HOP-92) | GI50 (OVCAR-4) | GI50 (Hs-578T) | GI50 (NCI/ADR-RES) |
| --- | --- | --- | --- | --- | --- | --- | --- | --- | --- | --- | --- | --- | --- | --- | --- | --- | --- | --- |
| C=CCCCn1ccc2ccccc21 | > 100 µM (inactive) | > 100 µM (inactive) | > 100 µM (inactive) | > 100 µM (inactive) | > 100 µM (inactive) | > 100 µM (inactive) | > 100 µM (inactive) | > 100 µM (inactive) | > 100 µM (inactive) | > 100 µM (inactive) | > 100 µM (inactive) | > 100 µM (inactive) | > 100 µM (inactive) | > 100 µM (inactive) | 7.45 µM (inactive) |  |  |  |
| CC12C3CC4C5CC(C(C53)[C@@H]1NCc1ccccc1)C42 (stereo partly drawn) | > 100 µM (inactive) | > 100 µM (inactive) | > 100 µM (inactive) | > 100 µM (inactive) | 24.4 µM (inactive) | > 100 µM (inactive) | > 100 µM (inactive) | > 100 µM (inactive) | > 100 µM (inactive) | 18.5 µM (inactive) | 62.7 µM (inactive) | > 100 µM (inactive) | > 100 µM (inactive) | > 100 µM (inactive) | 55.7 µM (inactive) | > 100 µM (inactive) |  |  |
| CCOC(=O)CC[C@@H](NC(=O)c1ccc(N[C@@H]2c3cc4c(cc3C(c3cc(OC)c(O)c(OC)c3)C3C(=O)OC[C@@H]32)OCO4)cc1)C(=O)OCC (stereo partly drawn) | 0.0251 µM (active) | 0.0787 µM (active) | 0.0205 µM (active) | 0.0863 µM (active) | 0.0427 µM (active) | 0.0121 µM (active) | 0.00292 µM (active) | 0.0103 µM (active) | 0.0706 µM (active) | 0.119 µM (active) | 0.0469 µM (active) | 0.0115 µM (active) | 0.001 µM (active) | 0.0127 µM (active) | 0.0205 µM (active) |  |  |  |
| Cn1nc(-c2cccc(-c3nn(C)/c(=N\CCO)s3)n2)s/c1=N/CCO | > 100 µM (inactive) | > 100 µM (inactive) | > 100 µM (inactive) |  | > 100 µM (inactive) | > 100 µM (inactive) | > 100 µM (inactive) | > 100 µM (inactive) | > 100 µM (inactive) | > 100 µM (inactive) | > 100 µM (inactive) | > 100 µM (inactive) | > 100 µM (inactive) | > 100 µM (inactive) | > 100 µM (inactive) | > 100 µM (inactive) |  |  |
| c1ccc2nc3c(nc2c1)sc1ccccc13 | 16.1 µM (inactive) | 22.2 µM (inactive) | 19.3 µM (inactive) | 67.5 µM (inactive) | 39.4 µM (inactive) | 30.7 µM (inactive) | > 100 µM (inactive) | 23.2 µM (inactive) | 15.6 µM (inactive) | 58.3 µM (inactive) | > 100 µM (inactive) | 14.3 µM (inactive) | 13.6 µM (inactive) | 30.7 µM (inactive) |  | 17.5 µM (inactive) | 30.5 µM (inactive) | 39.7 µM (inactive) |
| COc1ccc(/N=c2\ssc3c(=S)ssc23)cc1 |  | 19.4 µM (inactive) | 15.7 µM (inactive) | 60 µM (inactive) |  | 53.3 µM (inactive) | 4.09 µM (inactive) | 34.5 µM (inactive) | 5.94 µM (inactive) |  | 3.99 µM (inactive) | 23.8 µM (inactive) |  | > 100 µM (inactive) | 15.5 µM (inactive) | 34.9 µM (inactive) |  |  |
| Oc1cccc(-c2cccc(O)n2)n1 | > 100 µM (inactive) | > 100 µM (inactive) | > 100 µM (inactive) |  | > 100 µM (inactive) | > 100 µM (inactive) | > 100 µM (inactive) | > 100 µM (inactive) | > 100 µM (inactive) | > 100 µM (inactive) | > 100 µM (inactive) | > 100 µM (inactive) | > 100 µM (inactive) |  | 26.3 µM (inactive) |  |  |  |
| COC1=NN2C(OC)(c3ccccc3)c3c(-c4ccccc4)sc(-c4ccccc4)c3C2(c2ccccc2)S1 (stereo not drawn) |  | > 100 µM (inactive) | > 100 µM (inactive) | > 100 µM (inactive) | > 100 µM (inactive) | > 100 µM (inactive) | > 100 µM (inactive) | > 100 µM (inactive) | > 100 µM (inactive) | > 100 µM (inactive) | > 100 µM (inactive) | > 100 µM (inactive) | > 100 µM (inactive) | > 10 µM (inactive) | > 100 µM (inactive) |  |  |  |
| CCCCCCCCOCC(O)CO (stereo not drawn) | > 100 µM (inactive) | 43.3 µM (inactive) | > 100 µM (inactive) | > 100 µM (inactive) | > 100 µM (inactive) | > 100 µM (inactive) | > 100 µM (inactive) | > 100 µM (inactive) | > 100 µM (inactive) | > 100 µM (inactive) | > 100 µM (inactive) | > 100 µM (inactive) | > 100 µM (inactive) | > 100 µM (inactive) | 41.8 µM (inactive) | > 100 µM (inactive) |  |  |
